The values that follow come from patent US6833456B2, “Indolyl-urea derivatives of thienopyridines useful as antiangiogenic agents, and methods for their use” (Agouron Pharmaceuticals, Inc., priority 2002, dated 2004).

As a reminder, the Ki is the dissociation constant of the complex between target and ligand, obtained from inhibition or displacement. Low readings indicate higher affinity, high ones lower affinity. In general, inhibition refers to the drop in the measured response relative to a control, in per cent. Lower therefore signals a response near the control. A word on the IC50: it is the midpoint of a concentration-inhibition curve. What is called AUC is concentration integrated over time. High values mean high exposure, low ones low exposure.

Data set [1] addresses T1, unphosphorylated VEGF-R2Δ50 (FLVK) (Homo sapiens, UniProt P35968, DEL940-989/E990V).
T1 construct: VEGF-R2Δ50 contains residues 806-939 and 990-1171; made in house; host or cells: baculovirus/insect cell system
Put plainly: VEGF-R2 coupled spectrophotometric assay, unphosphorylated construct (FLVK). In kind it is biochemical. The note with it: for inhibition at 0.05 µM: percent inhibition at 50 nM. The source says: This construct determines the ability of a test compound to inhibit tyrosine kinase activity. A construct (VEGF-R2Δ50) of the cytosolic domain of human vascular endothelial growth factor receptor 2 (VEGF-R2) lacking the 50 central residues of the 68 residues of the kinase insert domain was expressed in a baculovirus/insect cell system. Of the 1356 residues of full-length VEGF-R2, VEGF-R2Δ50 contains residues 806-939 and 990-1171, and also one point mutation (E990V) within the kinase insert domain relative to wild-type VEGF-R2. Autophosphorylation of the purified construct was performed by incubation of the enzyme at a concentration of 4 μM in the presence of 3 mM ATP and 40 mM MgCl2 in 100 mM HEPES, pH 7.5, containing 5% glycerol and 5 mM DTT, at 4° C. for 2 h. […] See Parast et al., Biochemistry, 37, 16788-16801 (1998).
The production of ADP from ATP that accompanies phosphoryl transfer was coupled to oxidation of NADH using phosphoenolpyruvate (PEP) and a system having pyruvate kinase (PK) and lactic dehydrogenase (LDH). The oxidation of NADH was monitored by following the decrease of absorbance at 340 nm ([…]=6.22 cm^−1 mM^−1) using a Beckman DU 650 spectrophotometer. Assay conditions for phosphorylated VEGF-R2Δ50 (indicated as FLVK-P in the tables below) were the following: 1 mM PEP; 250 μM NADH; 50 units of LDH/mL; 20 units of PK/mL; 5 mM DTT; […]; 1 mM ATP; and 25 mM MgCl2 in 200 mM HEPES, pH 7.5. Assay conditions for unphosphorylated VEGF-R2Δ50 (indicated as FLVK in the tables) were the following: 1 mM PEP; 250 μM NADH; 50 units of LDH/mL; 20 units of PK/mL; 5 mM DTT; […]; 3 mM ATP; and 60 mM MgCl2 and 2 mM MnCl2 in 200 mM HEPES, pH 7.5. Assays were initiated with 5 to 40 nM of enzyme. Ki values were determined by measuring enzyme activity in the presence of varying concentrations of test compounds. The percent inhibition at 50 nm (% inhibition@ 50 nm) was determined by linear least-squares regression analysis of absorbance as a function of time. The binding inhibitions were fitted to equation as described by Morrison. The data were analyzed using Enzyme Kinetic and Kaleidagraph software.

The next data set is described as follows: Mouse PK assay. The note with it: po. In kind it is in vivo, B6 female mice. The procedure: The pharmacokinetics (e.g., absorption and elimination) of drugs in mice were analyzed using the following experiment. Test compounds were formulated as a suspension in a 30:70 (PEG 400: acidified H2O) vehicle. This solution was administered orally (p.o.) and intraperitoneally (i.p.) at 50 mg/kg to two distinct groups (n=4) of B6 female mice. Blood samples were collected via an orbital bleed at time points: 0 hour (pre-dose), 0.5 hr, 1.0 hr, 2.0 hr, and 4.0 hr post dose. Plasma was obtained from each sample by centrifugation at 2500 rpm for 5 min. Test compound was extracted from the plasma by an organic protein precipitation method. For each time bleed, 50 μL of plasma was combined with 1.0 mL of acetonitrile, vortexed for 2 min. and then spun at 4000 rpm for 15 min. to precipitate the protein and extract out the test compound. Next, the acetonitrile supernatant (the extract containing test compound) was poured into new test tubes and evaporated on a hot plate (25° C.) under a steam of N2 gas. To each tube containing the dried test compound extract, 125 μL of mobile phase (60:40, 0.025 M NH4H2PO4+2.5 mL/L TEA:acetonitrile) was added. The test compound was resuspended in the mobile phase by vortexing and more protein was removed by centrifugation at 4000 rpm for 5 min. Each sample was poured into an HPLC vial for test compound analysis on an Hewlett Packard 1100 series HPLC with UV detection. From each sample, 95 μL was injected onto a Phenomenex-Prodigy reverse phase C-18, 150×3.2 mm column and eluted with a 45-50% acetonitrile gradient run over 10 min. Test-compound plasma concentrations (μg/mL) were determined by a comparison to standard curve (peak area vs. conc. μg/mL) using known concentrations of test compound extracted from plasma samples in the manner described above. Along with the standards and unknowns, three groups (n=4) of quality controls (0.25 μg/mL, 1.5 μg/mL, and 7.5 μg/mL) were run to insure the consistency of the analysis. […] The quantitated test samples were plotted for visual display using Kaleidagraph software and their pharmacokinetic parameters were determined using WIN NONLIN software.

A further data set deals with T2, PDGFRβ (Homo sapiens, UniProt P09619).
T2 construct: expressed in transfected cells; host or cells: porcine aorta endothelial (PAE) cells
Put plainly: PAE-PDGFRβ phosphorylation in PAE-PDGFRB cells assay. In kind it is cell-based. Particulars: PAE cells overexpressing human PDGFRβ, PDGF-BB stimulated; read-out: PAE PDGFR autophos IC50. How it is done: This assay determines the ability of a test compound to inhibit the autophosphorylation of PDGFRβ in porcine aorta endothelial (PAE)-PDGFRβ cells. PAE cells that overexpress human PDGFRβ were used in this assay. The cells were cultured in Ham's F12 media supplemented with 10% fetal bovine serum (FBS) and 400 ug/ml G418. Twenty thousands cells were seeded in each well of a 96-well plate in 50 μL of growth media and allowed to attach for 6 hours at 37° C. Cells were then exposed to the starvation media (Ham's F12 media supplemented with 0.1% FBS) for 16 hours. After the starvation period was over, 10 μL of test agent in 5% DMSO in starvation media were added to the test wells and 10 μL of the vehicle (5% DMSO in starvation media) were added into the control wells. The final DMSO concentration in each well was 0.5%. Plates were incubated at 37° C. for 1 hour and the cells were then stimulated with 1 μg/mL PDGF-BB (R & D System) in the presence of 2 mM Na3VO4 for 8 minutes. The cells were washed once with 1 mm Na3VO4 in HBSS and lysed by adding 50 μL per well of lysis buffer. One hundred μL of dilution buffer were then added to each well and the diluted cell lysate was transferred to a 96-well goat ant-rabbit coated plate (Pierce), which was pre-coated with Rabbit anti Human PDGFRβ antibody (Santa Cruz). The plates were incubated at room temperature for 2 hours and washed seven times with 1% Tween 20 in PBS. HRP-PY20 (Santa Cruz) was diluted and added to the plate for a 30-minute incubation. Plates were then washed again and TMB peroxidase substrate (Kirkegaard & Perry) was added for a 10-minute incubation. One hundred μL of 0.09 N H2SO4 was added into each well of the 96-well plate to stop the reaction. Phosphorylation status was assessed by spectrophotometer reading at 450 nm. IC50 values were calculated by curve fitting using a four-parameter analysis.

T2 sequence (P09619 33-1106): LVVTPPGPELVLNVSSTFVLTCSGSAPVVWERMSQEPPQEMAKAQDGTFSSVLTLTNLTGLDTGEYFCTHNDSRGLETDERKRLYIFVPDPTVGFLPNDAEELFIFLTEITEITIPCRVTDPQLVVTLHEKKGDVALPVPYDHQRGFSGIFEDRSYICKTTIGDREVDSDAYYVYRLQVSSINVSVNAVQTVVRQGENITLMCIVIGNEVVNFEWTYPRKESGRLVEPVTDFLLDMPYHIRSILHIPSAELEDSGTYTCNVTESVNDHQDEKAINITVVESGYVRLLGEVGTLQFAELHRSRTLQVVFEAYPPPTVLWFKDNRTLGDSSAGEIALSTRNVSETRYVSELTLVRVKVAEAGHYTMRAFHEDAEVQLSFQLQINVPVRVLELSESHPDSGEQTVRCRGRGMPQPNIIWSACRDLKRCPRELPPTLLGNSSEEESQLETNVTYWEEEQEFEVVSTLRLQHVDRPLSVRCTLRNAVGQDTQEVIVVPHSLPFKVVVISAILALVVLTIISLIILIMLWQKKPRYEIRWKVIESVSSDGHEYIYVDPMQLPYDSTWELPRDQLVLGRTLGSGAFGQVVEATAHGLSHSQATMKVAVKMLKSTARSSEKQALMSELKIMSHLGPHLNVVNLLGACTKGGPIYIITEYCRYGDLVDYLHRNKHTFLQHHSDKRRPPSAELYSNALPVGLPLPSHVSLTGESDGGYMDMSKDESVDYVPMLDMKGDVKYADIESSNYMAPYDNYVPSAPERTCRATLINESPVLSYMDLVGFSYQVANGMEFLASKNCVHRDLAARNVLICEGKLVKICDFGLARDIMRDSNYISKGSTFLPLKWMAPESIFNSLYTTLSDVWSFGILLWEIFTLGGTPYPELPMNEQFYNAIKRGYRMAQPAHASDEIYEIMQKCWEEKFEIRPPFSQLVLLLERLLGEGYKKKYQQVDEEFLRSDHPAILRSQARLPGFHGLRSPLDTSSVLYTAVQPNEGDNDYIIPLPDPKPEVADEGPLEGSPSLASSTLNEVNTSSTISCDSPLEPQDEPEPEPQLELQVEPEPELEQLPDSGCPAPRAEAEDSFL
T1 sequence (P35968 with tags, fused parts or gaps DEL940-989/E990V limits assumed): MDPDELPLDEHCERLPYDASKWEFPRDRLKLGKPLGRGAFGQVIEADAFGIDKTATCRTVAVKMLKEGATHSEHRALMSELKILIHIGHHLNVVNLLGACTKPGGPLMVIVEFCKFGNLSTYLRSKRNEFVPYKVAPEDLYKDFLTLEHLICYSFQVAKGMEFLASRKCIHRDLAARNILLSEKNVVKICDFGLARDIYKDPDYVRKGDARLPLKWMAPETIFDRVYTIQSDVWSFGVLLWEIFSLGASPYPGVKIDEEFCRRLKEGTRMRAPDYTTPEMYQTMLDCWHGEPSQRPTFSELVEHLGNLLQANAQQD

In data set [1], `C#CCNC(=O)n1c(C)cc2c(F)c(Oc3ccnc4cc(C(=O)N5CCC(O)C5)sc34)ccc21` (stereo in doubt) [Example 5k, 4-Fluoro-5-[2-(3R-hydroxy-pyrrolidine-1-carbonyl)-thieno[3,2-b]pyridin-7-yloxy]-2-methyl-indole-1-carboxylic acid prop-2-ynylamide] displayed a Ki of 0.148 nM and an inhibition at 0.05 µM of 99%. In addition, the “Mouse Cmin, po” value in the data set “Mouse PK assay” is listed as 16470 ng/mL.
In data set [1], `C#CCNC(=O)n1c(C)cc2cc(Nc3ccnc4cc(C(=O)N5CC[C@H](OC)C5)sc34)ccc21` [Example 1h, 5-[2-(3S-Methoxy-pyrrolidine-1-carbonyl)-thieno[3,2-b]pyridin-7-ylamino]-2-methyl-indole-1-carboxylic acid prop-2-ynylamide] gave a Ki of 1.23 nM and an inhibition at 0.05 µM of 94%. Also, the IC50 on PDGFRβ is 57.7 nM.
In the same order, the values of `CNC(=O)n1c(C)cc2cc(Oc3ccnc4cc(-c5nc(CO)cs5)sc34)ccc21` [Example 3m] are 0.2 nM, 83% and 2.48 nM.
In data set [1], `COC[C@H]1CCCN1C(=O)c1cc2nccc(Oc3ccc4[nH]c(C)c(C(=O)NC5CC5)c4c3)c2s1` [Example 4y, 5-[2-(2R-Methoxymethyl-pyrrolidine-1-carbonyl)-thieno[3,2-b]pyridin-7-yloxy]-2-methyl-1H-indole-3-carboxylic acid cyclopropylamide] gave a Ki of 24 nM and an inhibition at 0.05 µM of 10%. Moreover, the AUC in the data set “Mouse PK assay” (female, B6, mouse, plasma, 50 mg/kg) came to 383 ng·h/mL. Also, the Cmax in the data set “Mouse PK assay” (female, B6, mouse, plasma, 50 mg/kg, p.o., 50 mg/kg, read-out: Mouse Cmax, po ng-h/mL) is 265 ng/mL. Moreover, the “Mouse Cmin, po” value in the data set “Mouse PK assay” was 11 ng/mL.
In data set [1], `C#CCNC(=O)n1c(C)cc2c(F)c(Oc3ccnc4cc(C(=O)N5CC[C@@H](OC)C5)sc34)ccc21` [Example 5o, 4-Fluoro-5-[2-((R)-3-methoxy-pyrrolidine-1-carbonyl)-thieno[3,2-b]pyridin-7-yloxy]-2-methyl-indole-1-carboxylic acid prop-2-ynylamide] yielded an inhibitory constant (Ki) of 0.09 nM and an inhibition at 0.05 µM of 99%. Also, at PDGFRβ, the IC50 was 3.65 nM.
Regarding `CNC(=O)n1c(C)cc2cc(Nc3ccnc4cc(C(=O)N5CC(F)[C@H](O)C5)sc34)ccc21` (stereo partly drawn) [Example 7b, 5-[(2-{[(4R)-3-Fluoro-4-hydroxypyrrolidin-1-yl]carbonyl}thieno[3,2-b]pyridin-7-yl)amino]-N,2-dimethyl-1H-indole-1-carboxamide], in data set [1], the affinity corresponds to a Ki of 0.406 nM and the inhibition at 0.05 µM stood at 95%. At PDGFRβ, the IC50 is over 1000 nM.
As to `CCCNC(=O)n1c(C)cc2cc(Oc3ccnc4cc(C(=O)N5C[C@H](O)[C@@H](O)C5)sc34)ccc21` [Example 8f, 5-[(2-{[(3S,4S)-3,4-Dihydroxypyrrolidin-1-yl]carbonyl}thieno[3,2-b]pyridin-7-yl)oxy]-2-methyl-N-propyl-1H-indole-1-carboxamide], in data set [1], the affinity corresponds to a Ki of 0.35 nM and the inhibition at 0.05 µM is 99%.
As for `CNC(=O)n1c(C)cc2cc(Oc3ccnc4cc(C(=O)N5CC(F)[C@@H](OC)C5)sc34)ccc21` (stereo partly drawn) [Example 8j, 5-[(2-{[(4S)-3-Fluoro-4-methoxypyrrolidin-1-yl]carbonyl}thieno[3,2-b]pyridin-7-yl)oxy]-N,2-dimethyl-1H-indole-1-carboxamide], in data set [1], the Ki amounted to 0.142 nM and the inhibition at 0.05 µM is 99%.
On the same counts, the results for `CO[C@H]1CCN(C(=O)c2cc3nccc(Oc4ccc5c(c4)cc(C)n5C(=O)NCCCCO)c3s2)C1` [Example 9a, 5-[2-(3S-Methoxy-pyrrolidine-1-carbonyl)-thieno[3,2-b]pyridin-7-yloxy]-2-methyl-indole-1-carboxylic acid (4-hydroxy-butyl)-amide] are 0.521 nM and 89%.
On the same counts, the results for `CCC(=O)n1c(C)cc2cc(Oc3ccnc4cc(C(=O)N5CC[C@H](O)C5)sc34)ccc21` [Example 10b, (3S)-1-({7-[(2-Methyl-1-propionyl-1H-indol-5-yl)oxy]thieno[3,2-b]pyridin-2-yl}carbonyl)pyrrolidin-3-ol] are 2.72 nM and 90%.
For `CCOC(=O)c1cc2ncnc(Nc3ccc4c(c3)cc(C)n4C(=O)NC)c2s1` [Example 11a, 4-(2-Methyl-1-methylcarbamoyl-1H-indol-5-ylamino)-thieno[3,2-b]pyrimidine-6-carboxylic acid ethyl ester], in data set [1], the Ki worked out at 37.8 nM and the inhibition at 0.05 µM is 20%.
On the same counts, the results for `CNC(=O)n1c(C)cc2cc(Nc3ncnc4cc(C(=O)N5CCC[C@H]5COC)sc34)ccc21` [Example 11b, 5-[6-(2-Methoxymethyl-pyrrolidine-1-carbonyl)-thieno[3,2-b]pyrimidin-4-ylamino]-2-methyl-indole-1-carboxylic acid methylamide] are 28.8 nM and 18%.
In the same order, the values of `CCOC(=O)c1cc2c(Nc3ccc4c(c3)cc(C)n4C(=O)NC)ncnc2s1` [Example 12a, 4-(2-Methyl-1-methylcarbamoyl-1H-indol-5-ylamino)-thieno[2,3-b]pyrimidine-6-carboxylic acid ethyl ester] are 240 nM and 0%.
In data set [1], `CCOC(=O)c1cc2c(Oc3ccc4c(c3)cc(C)n4C(=O)NC)ncnc2s1` [Example 12c, 4-(2-Methyl-1-methylcarbamoyl-1H-indol-5-yloxy)-thieno[2,3-b]pyrimidine-6-carboxylic acid ethyl ester] showed a Ki of 34.3 nM and an inhibition at 0.05 µM of 14%.
